Source: patent US20220273571A1, “COMPOSITIONS OF PROBIOTICS AND BIOMASS AND METHODS FOR PROMOTING HEALTH IN A SUBJECT” (Commonwealth Scientific and Industrial Research Organisation, priority 2019, published 2022)

Key:
[1] = system: Lachnospiraceae (Dorea formicigenerans); experiment: In vitro colonic fermentation, 16S rRNA bacterial population analysis; format: cell-based; conditions: 24 h fermented samples versus Time 0 samples
[2] = system: Lactobacillaceae (Lactobacillus reuteri); experiment: as above; format: cell-based; conditions: 24 h fermented samples versus Time 0 samples
[3] = system: Porphyromonadaceae (Parabacteroides distasonis); experiment: as above; format: cell-based; conditions: 24 h fermented samples versus Time 0 samples
[4] = system: Enterobacteriaceae (Trabulsiella); experiment: as above; format: cell-based; conditions: 24 h fermented samples versus Time 0 samples
[5] = system: faecal slurries (gut microbiota); experiment: In vitro colonic fermentation, SCFA analysis by gas chromatography; conditions: 24 hrs fermentation, result in words (FIG. 2, FIG. 3)
[6] = pH of formulations in fermentation media before pH adjustment; format: physicochemical; conditions: 150 mg dried formulation in 10 mL fermentation media, before standardizing the starting pH at 6.8
[7] = system: Ruminococcaceae (Oscillospira); experiment: In vitro colonic fermentation, 16S rRNA bacterial population analysis; format: cell-based; conditions: 24 h fermented samples versus Time 0 samples
[8] = system: Ruminococcaceae (Ruminococcus); experiment: as above; format: cell-based; conditions: 24 h fermented samples versus Time 0 samples
[9] = system: Lachnospiraceae (Lachnospira); experiment: as above; format: cell-based; conditions: 24 h fermented samples versus Time 0 samples
[10] = system: Bacteroidaceae (Bacteroides); experiment: as above; format: cell-based; conditions: 24 h fermented samples versus Time 0 samples
[11] = system: Clostridiaceae (Clostridium perfringens); format: cell-based; conditions: 24 h fermented samples versus Time 0 samples
[12] = system: Lachnospiraceae (Coprococcus); experiment: In vitro colonic fermentation, 16S rRNA bacterial population analysis; format: cell-based; conditions: 24 h fermented samples versus Time 0 samples
[13] = system: Ruminococcaceae (Faecalibacterium prausnitzii); experiment: as above; format: cell-based; conditions: 24 h fermented samples versus Time 0 samples
[14] = system: Lachnospiraceae (Blautia); experiment: as above; format: cell-based; conditions: 24 h fermented samples versus Time 0 samples
[15] = system: Veillonellaceae (Veillonella dispar); experiment: as above; format: cell-based; conditions: 24 h fermented samples versus Time 0 samples
[16] = system: Lachnospiraceae (Roseburia faecis); experiment: as above; format: cell-based; conditions: 24 h fermented samples versus Time 0 samples
[17] = system: Paraprevotellaceae (Paraprevotella); experiment: as above; format: cell-based; conditions: 24 h fermented samples versus Time 0 samples
[18] = system: Veillonellaceae (Dialister); experiment: as above; format: cell-based; conditions: 24 h fermented samples versus Time 0 samples
[19] = system: Coriobacteriaceae (Collinsella aerofaciens); experiment: as above; format: cell-based; conditions: 24 h fermented samples versus Time 0 samples
[20] = system: Bacillaceae (Bacillus coagulans); experiment: as above; format: cell-based; conditions: 24 h fermented samples versus Time 0 samples
[21] = system: faecal slurries (gut microbiota); experiment: In vitro colonic batch fermentation, pH value; conditions: batch fermentation with faecal slurry, 37° C., starting pH adjusted
Erysipelotrichaceae = experiment: In vitro colonic fermentation, 16S rRNA bacterial population analysis; format: cell-based; conditions: 24 h fermented samples versus Time 0 samples
Ruminococcaceae = experiment: as above; format: cell-based; conditions: 24 h fermented samples versus Time 0 samples

Structure (SMILES): O=C(O[C@@H]1Cc2c(O)cc(O)cc2O[C@@H]1c1cc(O)c(O)c(O)c1)c1cc(O)c(O)c(O)c1 [EGCG, Epigallocatechin gallate]
- Log2 fold change of percentage abundance, Lachnospiraceae (Dorea formicigenerans) [1]: −1.47 Log2 fold change
- Log2 fold change of percentage abundance, Lactobacillaceae (Lactobacillus reuteri) [2]: −0.37 Log2 fold change
- Log2 fold change of percentage abundance, Porphyromonadaceae (Parabacteroides distasonis) [3]: 0.27 Log2 fold change
- Log2 fold change of percentage abundance, Enterobacteriaceae (Trabulsiella) [4]: 0.58 Log2 fold change
- total and individual SCFA production during fermentation [5]: significantly inhibited
- pH [6]: 7.16
- Log2 fold change of percentage abundance, Ruminococcaceae (Oscillospira) [7]: −0.31 Log2 fold change
- Log2 fold change of percentage abundance, Ruminococcaceae (Ruminococcus) [8]: −1.35 Log2 fold change
- Log2 fold change of percentage abundance, Lachnospiraceae (Lachnospira) [9]: −0.28 Log2 fold change
- Log2 fold change of percentage abundance, Bacteroidaceae (Bacteroides) [10]: −0.13 Log2 fold change
- Log2 fold change of percentage abundance, Clostridiaceae (Clostridium perfringens) [11]: −0.79 Log2 fold change
- Log2 fold change of percentage abundance, Lachnospiraceae (Coprococcus) [12]: −0.22 Log2 fold change
- Log2 fold change of percentage abundance, Ruminococcaceae (Faecalibacterium prausnitzii) [13]: −0.81 Log2 fold change
- Log2 fold change of percentage abundance, Lachnospiraceae (Blautia) [14]: −1.39 Log2 fold change
- Log2 fold change of percentage abundance, Veillonellaceae (Veillonella dispar) [15]: −0.58 Log2 fold change
- Log2 fold change of percentage abundance, Lachnospiraceae (Roseburia faecis) [16]: −0.11 Log2 fold change
- Log2 fold change of percentage abundance, Paraprevotellaceae (Paraprevotella) [17]: 0.46 Log2 fold change
- Log2 fold change of percentage abundance, Veillonellaceae (Dialister) [18]: −0.32 Log2 fold change
- Log2 fold change of percentage abundance, Coriobacteriaceae (Collinsella aerofaciens) [19]: −0.81 Log2 fold change
- Log2 fold change of percentage abundance, Bacillaceae (Bacillus coagulans) [20]: −1.94 Log2 fold change
- pH at 24 hrs [21]: 6.46 ± 0.05
- Log2 fold change of percentage abundance, Erysipelotrichaceae (Erysipelotrichaceae): −1.30 Log2 fold change
- Log2 fold change of percentage abundance, Ruminococcaceae (Ruminococcaceae): −0.57 Log2 fold change
